Laboratory results: PMC8482815, “Targeting Host Glycolysis as a Strategy for Antimalarial Development” (Frontiers in Cellular and Infection Microbiology, 2021)
Like-named read-outs stand apart in the source and are kept apart here.

Tests used:
[1] = test system: human erythrocytes; experiment: Detection and quantification of MetHb formation in cultured erythrocytes; assay type: cell-based; settings: MetHb formation, 500 = highest concentration tested
Procedure: (§1) Banked blood (Saint Louis Children’s Hospital) and fresh blood [healthy donors] was washed and stored at 50% hematocrit at 4°C up to 1 month past the clinical expiration date and collection date, respectively. Parasite strains provided by the Malaria Research and Reference Reagent Resource Center (MR4) as follows: 3D7 (MRA-102); K1 (MRA-159); D10 (MRA-201); and IPC-5202 (MRA-1240). Unless indicated, erythrocytes were cultured as previously described at 2% hematocrit in complete media (incomplete media supplemented with 27mM sodium bicarbonate, 11mM glucose, 5mM HEPES, 1mM sodium pyruvate, 0.37mM hypoxanthine, 0.01mM thymidine, 10µg/mL gentamicin, and 0.5% Albumax I (Thermo-Fisher) under 5% O2/5% CO2/90% N2 atmosphere at 37°C ([Guggisberg et al., 2014]).
MetHb was detected by measuring absorbance in the 630-640nm range, which is specific from other hemoglobin subforms (oxyhemoglobin, deoxyhemoglobin, and carboxyhemoglobin). Supernatants were removed and erythrocyte pellets were fully lysed and diluted, as described above. The absorption peak for oxyhemoglobin (575nm) and MetHb (630nm) were measured and the EC50 of MetHb formation was determined using non-linear regression analysis (GraphPad Prism).

[2] = test system: P. falciparum strain 3D7; experiment: Plasmodium falciparum growth inhibition assay (Picogreen DNA content, three-day incubation); assay type: cell-based; settings: for S.I. + pyruvate (Supplemental Table 4): MetHb EC50 / parasite EC50, with pyruvate; for S.I. - pyruvate (Supplemental Table 4): MetHb EC50 / parasite EC50, without pyruvate; for S.I. Fold Change (Supplemental Table 4): change in S.I. with versus without pyruvate
Procedure: as §1
(§2) Asynchronous cultures diluted to 1% parasitemia in 100μL wells were subjected to drug dilutions, solvent controls, and untreated uninfected erythrocyte controls in technical duplicates. Following a three-day incubation, DNA content was quantified using Picogreen (Life Technologies), as previously described ([Corbett et al., 2004]). Half-maximal effective concentrations (EC50) were determined from nonlinear regression of three biological replicates (GraphPad Prism).

[3] = test system: P. falciparum K1 (chloroquine and sulfadoxine-pyrimethamine resistant); experiment: Plasmodium falciparum growth inhibition assay, drug-resistant line K1; assay type: cell-based; settings: K1, chloroquine and sulfadoxine-pyrimethamine resistant, means ± s.e.m, read-out: EC50 (nM), P. falciparum K1
Procedure: (§3) Banked blood (Saint Louis Children’s Hospital) and fresh blood [healthy donors] was washed and stored at 50% hematocrit at 4°C up to 1 month past the clinical expiration date and collection date, respectively. Parasite strains provided by the Malaria Research and Reference Reagent Resource Center (MR4) as follows: 3D7 (MRA-102); K1 (MRA-159); D10 (MRA-201); and IPC-5202 (MRA-1240). […]
as §2, with “Prism). […]” for “Prism).”
(§4) Supplemental Table 5. […] Half-maximal inhibitor concentrations (EC50s) were determined for drug resistant malaria parasites and compared to the sensitive 3D7 strain. The respective EC50s are calculated from each of the independent biological replicates using a non-linear regression of the log of the inhibitor concentration with data from each technical replicate normalized to maximal and minimal growth using the software package GraphPad Prism. […]
(§5) means ± s.e.m calculated from three biological replicates.

[4] = test system: luciferase-expressing P. berghei ANKA parasites; experiment: In vivo efficacy against blood stage parasite burden (luciferase imaging); parameters: species or system Swiss-Webster mice; settings: i.p. daily for five days; 30mg/kg POM-HEX, 5mg/kg POM-SF
Procedure: (§6) Groups of five female Swiss-Webster mice were injected intraperitoneally (i.p.) with 10^3 luciferase-expressing P. berghei ANKA parasites ([Franke-Fayard et al., 2008]). Forty-eight hours post infection, mice were injected i.p. daily for five days with either 200µL of 2% methylcellulose/0.5% Tween80, 40mg/kg chloroquine, 100mg/kg HEX, 30mg/kg POM-HEX, or 5mg/kg POM-SF. Enolase inhibitors dosing were selected as approximately 3-fold lower than the maximum acutely tolerated dose for each compound by i.p. injection. Day 7 post-infection, mice were injected with 150mg/kg D-luciferin potassium salt in PBS (GoldBio) and imaged on an IVIS 100 and parasite burden assessed (Xenogen LivingImage).

[5] = test system: P. falciparum D10 (mefloquine resistant); experiment: Plasmodium falciparum growth inhibition assay, drug-resistant line D10; assay type: cell-based; settings: D10, mefloquine resistant, means ± s.e.m, read-out: EC50 (nM), P. falciparum D10
Procedure: as §3
as §2, with “Prism). […]” for “Prism).”
as §4, §5

[6] = test system: P. falciparum IPC-5202 (chloroquine and artemisinin resistant); experiment: Plasmodium falciparum growth inhibition assay, drug-resistant line IPC-5202; assay type: cell-based; settings: chloroquine and artemisinin resistant, means ± s.e.m, read-out: EC50 (nM), P. falciparum IPC-5202
Procedure: as §3
as §2, with “Prism). […]” for “Prism).”
as §4, §5

[7] = test system: P. falciparum; parameters: method as in Vennerstrom et al., 1999; Phillips et al., 2015; settings: ref Vennerstrom et al., 1999; Phillips et al., 2015; read-out: EC50, in vitro potency of other antimalarial compounds; cited from earlier work
[8] = test system: P. berghei ANKA; assay type: in vivo, Swiss Webster mice; settings: 2DG 200 mg/kg
Procedure: as §6
The glucose mimetic 2-DG and enolase inhibitors POM-HEX, and HEX were evaluated in the P. berghei mouse model of cerebral malarial, as previously described ([Wang et al., 2018]). Briefly, in addition to groups of mice (n = 5) dosed as described above for POM-HEX and HEX, 2-DG was administered to an additional group (n = 5) at 200mg/kg twice daily and all were monitored for survival, parasitemia (blood smear Giemsa), and clinical signs of cerebral malaria (paralysis, deviation of the head, ataxia, convulsions, and coma) over 15 days.

[9] = with pyruvate, read-out: MetHb EC50 + pyruvate (Supplemental Table 4)
[10] = without pyruvate, read-out: MetHb EC50 - pyruvate (Supplemental Table 4)
[11] = P. falciparum growth, with pyruvate, read-out: Parasite EC50 + pyruvate (Supplemental Table 4)
[12] = P. falciparum growth, without pyruvate, 500 = highest concentration tested, read-out: Parasite EC50 - pyruvate (Supplemental Table 4)

Compound | EC50 [1, 9] [µM] | EC50 [1, 10] [µM] | S.I. + pyruvate (Supplemental Table 4) [2] | S.I. - pyruvate (Supplemental Table 4) [2] | EC50 [2, 11] [nM] | EC50 [2, 12] [nM] | S.I. Fold Change (Supplemental Table 4) [2] | also measured
O=C1C(P2(=O)NCCCO2)CCCN1O (centres unmarked) [PKM J45] | > 500 | > 500 | 5.3 | 14.3 | 94000 ± 4700 | 35000 ± 3100 | 0.4 | 
CC(C)(C)C(=O)OCOP(=O)(OCOC(=O)C(C)(C)C)C1CC(O)N(O)C1=O (centres unmarked) [POM-SF] |  |  | 1.9 | 0.1 |  |  | 13.6 | EC50 [3]: 361 ± 34 nM; EC50 ([1]; Homo sapiens, Erythrocyte, absence of 1mM pyruvate, mean ± s.e.m., EC50 not resolved, read-out: MetHb EC50 - pyruvate): 0.1 ± 0.002 µM; EC50 ([1]; Homo sapiens, Erythrocyte, presence of 1mM pyruvate, mean ± s.e.m., EC50 not resolved, read-out: MetHb EC50 + pyruvate): 0.48 ± 0.01 µM; effect on parasite burden (in words) [4]: does not forestall a lethal parasite burden; EC50 [5]: 437 ± 83 nM; EC50 ([2]; Plasmodium falciparum, 3D7, 72 h, P. falciparum growth, presence of 1mM pyruvate, mean ± s.e.m., read-out: Parasite EC50 + pyruvate): 250 ± 10 nM; EC50 ([2]; Plasmodium falciparum, 3D7, P. falciparum growth, absence of 1mM pyruvate, mean ± s.e.m., 500 = highest concentration tested, EC50 not resolved, read-out: Parasite EC50 - pyruvate): 710 ± 40 nM; EC50 ([2]; Plasmodium falciparum, 3D7, means ± s.e.m, three biological replicates, read-out: EC50 (nM), P. falciparum 3D7 (pan-sensitive)): 185 ± 18 nM; T.I. Fold change ([2]; change in T.I. with versus without 1mM pyruvate): 13.6; T.I. + pyruvate ([2]; therapeutic index = [EC50 for MetHb formation]/[EC50 for parasite growth inhibition], with 1mM pyruvate): 1.9; T.I. - pyruvate ([2]; therapeutic index = [EC50 for MetHb formation]/[EC50 for parasite growth inhibition], without pyruvate): 0.1; EC50 [6]: 321 ± 11 nM
CC(C)OC(=O)C(C)NP(=O)(Oc1ccccc1)C1CCCN(O)C1=O (centres unmarked) [SDR6] | > 500 | > 500 | 8.3 | 10.4 | 60000 ± 13000 | 48000 ± 2800 | 0.8 | 
CC(C)OC(=O)C(C)NP(=O)(NC(C)C(=O)OC(C)C)C1CCCN(O)C1=O (centres unmarked) [SDR4] | > 500 | > 500 | 6.8 | 15.6 | 73000 ± 8700 | 32000 ± 2400 | 0.4 | 
O=C1C(P(=O)(O)O)CC(O)N1O (centres unmarked) [SF-2312, reference compound] | > 500 | > 500 | 18.5 | 2.8 | 27000 ± 2000 | 180000 ± 9300 | 6.6 | EC50 ([2]; asexual P. falciparum, phosphonates, read-out: half maximal effective concentrations (EC50s), parasite growth): > 15000 nM
COc1cc(C)c2c(Oc3cccc(C(F)(F)F)c3)c(OC)cc(NC(C)CCCN)c2n1 (centres unmarked) [tafenoquine] |  |  |  |  |  |  |  | EC50 [7]: 0.436 µM
CC(=O)ON1CCCC(P(=O)(OCOC(=O)C(C)(C)C)OCOC(=O)C(C)(C)C)C1=O (centres unmarked) [SDR23] | 2.5 ± 0.34 | 1.3 ± 0.07 | 1.6 | 0.6 | 1600 ± 110 | 2100 ± 250 | 2.5 | 
CC(C)OC(=O)OCOP(=O)(OCOC(=O)OC(C)C)C1CCCN(O)C1=O (centres unmarked) [Compound J52] | 0.49 ± 0.02 | 0.77 ± 0.04 | 0.3 | 0.3 | 1600 ± 4000 | 2900 ± 400 | 1.2 | 
CC1(P(=O)(O)O)CC(O)N(O)C1=O (centres unmarked) [MethylSF-2312] | > 500 | > 500 | 19.2 | 3.8 | 26000 ± 2900 | 130000 ± 3500 | 5.1 | 
O=CC[C@@H](O)[C@H](O)[C@H](O)CO [Compound 2-DG, 2-deoxyglucose, reference compound] |  |  |  |  |  |  |  | effect on clinical score, overall survival, cerebral malaria (in words) ([8]; POM-HEX 30 mg/kg): did not improve; parasitemia ([8]; d4, blood smear Giemsa, treated from day 2, HEX 100 mg/kg, control 7.8±3.3%): 13.3±3.9%
Cc1cc(Nc2ccc(S(F)(F)(F)(F)F)cc2)n2nc(C(C)(F)F)nc2n1 [DSM265] |  |  |  |  |  |  |  | EC50 [7]: 0.053 µM
O=C1C(P(=O)(O)O)CCN1O (centres unmarked) [DeoxySF-2312] | > 500 | > 500 | 16.7 | 6.3 | 30000 ± 9700 | 80000 ± 2000 | 2.7 | selectivity for antiparasitic activity over erythrocyte toxicity (in words) ([2]; parasite growth versus MetHb formation): notably selective
